Laboratory results published in PubChem BioAssay (NCI).
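Briefly, cells in 96-well plates were exposed to five compound concentrations for 48 h, and endpoints were estimated by linear interpolation. TGI denotes the concentration required for complete inhibition of growth.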

Experiments:
Test in all cases: DTP human tumour cell line panel, 48 h
786-0 renal = test system: 786-0 renal
A549 NSCLC = test system: A549 NSCLC
HCT-116 colon = test system: HCT-116 colon
HS 578T breast = test system: HS 578T breast
LOX IMVI melanoma = test system: LOX IMVI melanoma
MCF7 breast = test system: MCF7 breast
NCI-H23 lung = test system: NCI-H23 lung
NCI-H460 lung = test system: NCI-H460 lung
SF-268 CNS = test system: SF-268 CNS
SF-539 CNS = test system: SF-539 CNS
SK-MEL-2 melanoma = test system: SK-MEL-2 melanoma
SNB-75 CNS = test system: SNB-75 CNS
SR leukemia = test system: SR leukemia
TK-10 renal = test system: TK-10 renal
UO-31 renal = test system: UO-31 renal

Row | Structure (SMILES) | TGI (786-0 renal) [µM] | TGI (A549 NSCLC) [µM] | TGI (HCT-116 colon) [µM] | TGI (HS 578T breast) [µM] | TGI (LOX IMVI melanoma) [µM] | TGI (MCF7 breast) [µM] | TGI (NCI-H23 lung) [µM] | TGI (NCI-H460 lung) [µM] | TGI (SF-268 CNS) [µM] | TGI (SF-539 CNS) [µM] | TGI (SK-MEL-2 melanoma) [µM] | TGI (SNB-75 CNS) [µM] | TGI (SR leukemia) [µM] | TGI (TK-10 renal) [µM] | TGI (UO-31 renal) [µM]
1 | OC1(c2ccccc2)CSC2=Nc3ccccc3C3CCN1N23 (stereo not given) | 34.4 | 74.3 | 44.1 | > 100 | 36.9 | 46 | 79.2 | > 100 | 58.5 | 30.8 | 32.1 | 25.5 | 55.4 | 43.2 | 28.7
2 | CCN(c1cccc(NC(=S)Nc2ccccc2N(CC)c2cc(-c3ccccc3)no2)c1)c1cc(-c2ccccc2)no1 | > 100 | > 100 | > 100 | > 100 | > 100 | > 100 | > 100 | > 100 | > 100 | > 100 | > 100 | > 100 | > 100 | > 100 | > 100
3 | CCOc1cc(NC(C)=O)ccc1C(=O)NN1C(=O)C(Cl)C1c1ccco1 (stereo not given) | 30.8 | 38.8 | 49.3 | 65.5 | 13.1 | 26.8 | 39 | 35.1 | 35.1 | 38 | 37.3 | 26.7 | 35.9 | 31.3 | 11.5
4 | CC(=O)OCC1OC(n2c(=O)[nH]c(=O)c3sccc32)C(Br)C1OC(C)=O (stereo not given) | > 100 | > 100 | > 100 | > 100 | > 100 | > 100 | > 100 | > 100 | > 100 | > 100 | > 100 | > 100 | > 100 | > 100 | > 100
5 | N#C/C(=C\c1c[nH]c2ccccc12)C(=O)c1ccc(O)c(O)c1 | > 62 | 98.7 | > 84.8 | > 100 | > 100 | > 100 | > 100 | > 100 | > 100 | > 83.7 | > 80.3 | > 100 | > 31.6 | 98.2 | 45.9
6 | CC(C)CN=C(N)N=C(N)N | > 100 | > 100 | > 100 | > 100 | > 100 | > 100 | > 100 | > 100 | > 100 | > 100 | > 100 | > 100 | > 100 | > 100 | > 100
7 | Cc1nc(-c2ccc(N=Cc3ccc(N(CCOS(C)(=O)=O)CCOS(C)(=O)=O)cc3C)cc2)cs1 | 47.5 | > 100 | > 100 | > 100 | > 100 | 53.6 | > 100 | > 100 | 40.2 | 8.84 | > 100 | > 100 | > 100 | > 100 | 62
